Measurements: ChEMBL document CHEMBL6087458, “The Discovery of a Novel AXL/Triple Angiokinase Inhibitor Based on 6-Chloro-Substituted Indolinone and Side Chain Methyl Substitution Inhibiting Pancreatic Cancer Growth and Metastasis” (J Med Chem, 2025)

Legend:
[1] = Cytotoxicity against mouse NIH/3T3 cells assessed as cell viability incubated for 72 hrs by MTT assay; type: toxicity, cell-based, NIH3T3
[2] = Cytotoxicity against human HUVEC cells assessed as cell viability incubated for 72 hrs by MTT assay; type: toxicity, cell-based
BXPC-3 [3] = experiment: Antitumor activity against human BXPC-3 cells xenografted in mouse assessed as tumor growth inhibition at 50 mg/kg, po administered for 14 days; type: functional; settings: BXPC-3, 336 h, time 14 day, read-out: TGI
BXPC-3 [4] = experiment: Antitumor activity against human BXPC-3 cells xenografted in mouse assessed as reduction in tumor weight at 50 mg/kg, po administered for 14 days; type: functional; set-up: scale not given: the % may be the effect or the level left; settings: time 14 day
[5] = Cytotoxicity against human HK-2 cells assessed as inhibition of cell growth; type: toxicity, cell-based
[6] = Cytotoxicity against human HaCaT cells assessed as inhibition of cell growth; type: toxicity, cell-based
[7] = Cytotoxicity against human MCF-10A cells assessed as inhibition of cell growth; type: toxicity, cell-based
[8] = Cytotoxicity against human HEK293 cells assessed as inhibition of cell growth; type: toxicity, cell-based
[9] = Metabolic stability in rat liver microsome assessed as half life measured upto 240 mins by HPLC analysis; type: ADME; settings: liver microsomes
[10] = Tmax in Sprague-Dawley rat at 50 mg/kg, po; type: ADME, organism-based; settings: in vivo
[11] = Cmax in Sprague-Dawley rat at 50 mg/kg, po; type: ADME, organism-based; settings: in vivo
[12] = AUC (0 to last) in Sprague-Dawley rat at 5 mg/kg, iv; type: ADME, organism-based; settings: in vivo, iv, 5 mg/kg
[13] = AUC (0 to last) in Sprague-Dawley rat at 50 mg/kg, po; type: ADME, organism-based; settings: in vivo, po, 50 mg/kg
[14] = Half life in Sprague-Dawley rat at 5 mg/kg, iv; type: ADME, organism-based; settings: in vivo
[15] = Half life in Sprague-Dawley rat at 50 mg/kg, po; type: ADME, organism-based; settings: in vivo
[16] = Clearance in Sprague-Dawley rat at 5 mg/kg, iv; type: ADME, organism-based; settings: in vivo
[17] = Volume of distribution at steady state in Sprague-Dawley rat at 5 mg/kg, iv; type: ADME, organism-based; settings: in vivo, read-out: Vdss
[18] = Oral bioavailability in Sprague-Dawley rat at 50 mg/kg; type: ADME, organism-based; settings: in vivo, po, 50 mg/kg
[19] = target: Tyrosine-protein kinase receptor UFO (Homo sapiens) (UniProt P30530); settings: dose 100.0 nM
Chain of Tyrosine-protein kinase receptor UFO (Homo sapiens) (P30530 whole entry): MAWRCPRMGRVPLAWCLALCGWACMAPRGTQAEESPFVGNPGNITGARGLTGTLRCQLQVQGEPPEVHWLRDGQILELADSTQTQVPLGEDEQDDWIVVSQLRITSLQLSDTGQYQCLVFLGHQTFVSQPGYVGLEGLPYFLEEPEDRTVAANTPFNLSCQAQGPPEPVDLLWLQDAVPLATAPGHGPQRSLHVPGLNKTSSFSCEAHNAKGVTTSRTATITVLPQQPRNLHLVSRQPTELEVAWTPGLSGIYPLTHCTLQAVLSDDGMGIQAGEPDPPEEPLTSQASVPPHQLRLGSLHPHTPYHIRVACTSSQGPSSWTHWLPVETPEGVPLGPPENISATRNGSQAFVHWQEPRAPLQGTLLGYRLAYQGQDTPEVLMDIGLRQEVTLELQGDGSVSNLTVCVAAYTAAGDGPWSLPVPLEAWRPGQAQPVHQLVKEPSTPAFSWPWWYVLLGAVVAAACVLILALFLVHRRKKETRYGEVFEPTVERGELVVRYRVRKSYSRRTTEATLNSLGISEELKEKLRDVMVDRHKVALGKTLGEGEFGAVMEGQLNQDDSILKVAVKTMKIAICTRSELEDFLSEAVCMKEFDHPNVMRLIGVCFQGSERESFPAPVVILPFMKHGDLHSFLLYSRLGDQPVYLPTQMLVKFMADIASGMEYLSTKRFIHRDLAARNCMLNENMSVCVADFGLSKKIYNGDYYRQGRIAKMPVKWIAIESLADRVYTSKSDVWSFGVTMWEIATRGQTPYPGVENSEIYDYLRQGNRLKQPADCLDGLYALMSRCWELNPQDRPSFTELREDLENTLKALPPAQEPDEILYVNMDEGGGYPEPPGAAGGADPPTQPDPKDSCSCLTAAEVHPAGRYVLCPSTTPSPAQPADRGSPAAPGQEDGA
Description: Inhibition of AXL (unknown origin) at 100 nM by envision reader analysis relative to control

BXPC-3 [20] = experiment: cells; settings: Homo sapiens, BXPC-3, 72 h
Description: Antiproliferative activity against human BXPC-3 cells assessed as cell viability incubated for 72 hrs by MTT assay

MDA-MB-231 = experiment: cells; settings: Homo sapiens, MDA-MB-231, 72 h
Description: Antiproliferative activity against human MDA-MB-231 cells assessed as cell viability incubated for 72 hrs by MTT assay

MKN-45 = experiment: cells; settings: Homo sapiens, MKN-45, 72 h
Description: Antiproliferative activity against human MKN-45 cells assessed as cell viability incubated for 72 hrs by MTT assay

NCI-H1975 = experiment: cells; settings: Homo sapiens, NCI-H1975, 72 h
Description: Antiproliferative activity against human NCI-H1975 cells assessed as cell viability incubated for 72 hrs by MTT assay

SW480 = experiment: cells; settings: Homo sapiens, SW480, 72 h
Description: Antiproliferative activity against human SW480 cells assessed as cell viability incubated for 72 hrs by MTT assay

PC-9 = experiment: cells; settings: Homo sapiens, PC-9, 72 h
Description: Antiproliferative activity against human PC-9 cells assessed as cell viability incubated for 72 hrs by MTT assay

A549 = experiment: cells; settings: Homo sapiens, A549, 72 h
Description: Antiproliferative activity against human A549 cells assessed as cell viability incubated for 72 hrs by MTT assay

A549/TR = experiment: cells; settings: Homo sapiens, 72 h
Description: Antiproliferative activity against human A549/Taxol cells assessed as cell viability incubated for 72 hrs by MTT assay

cells = settings: Homo sapiens, CDDP-resistant A549 cell, 72 h
Description: Antiproliferative activity against human CDDP-resistant A549 cell assessed as cell viability incubated for 72 hrs by MTT assay

[21] = system: Osimertinib-resistant NCI-H1975 cell; experiment: cells; settings: Homo sapiens, 72 h

SMILES: COC(=O)c1ccc2c(c1)NC(=O)/C2=C(\Nc1ccc(N(C)C(=O)CN2CCN(C)CC2)cc1)c1ccccc1 [NINTEDANIB]
- IC50 at 72 h [1]: 4.34 µM
- IC50 at 72 h [2]: 3.69 µM
- inhibition in vivo at 50 mg/kg (BXPC-3 [3]): 68.1%
- Activity (BXPC-3 [4]): 55.84%
- IC50 [5]: 2.87 µM
- IC50 [6]: > 10 µM
- IC50 [7]: > 10 µM
- IC50 [8]: 3.46 µM
- half-life [9]: 0.194 h
- Tmax [10]: 2 h
- Cmax [11]: 64.2 ng/mL
- AUClast [12]: 749 ng·h/mL
- AUClast [13]: 64.2 ng·h/mL
- half-life [14]: 1.76 h
- half-life [15]: 3.99 h
- clearance [16]: 111 mL/min/kg
- Vd [17]: 7.91 L/kg
- F [18]: 7.91%
- inhibition [19]: 32.1%
- IC50 (BXPC-3 [20]): 5.34 µM
- IC50 (MDA-MB-231): > 10 µM
- IC50 (MKN-45): > 10 µM
- IC50 (NCI-H1975): > 10 µM
- IC50 (SW480): > 10 µM
- IC50 (PC-9): > 10 µM
- IC50 (A549): > 10 µM
- IC50 (A549/TR): 10 µM
- IC50 (cells): > 10 µM
- IC50 [21]: > 10 µM
